Results published in the supplement of paper PMC11451515.

Tests used:
Details in all cases: 48 h
NOMO1 [1] = experiment: cell viability relative to DMSO control; higher = less cytotoxic
In short: (§1)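 Before seeding, each leukemia line was adapted for at least four passages in each medium. NOMO1 or SEM cells (500 cells/well) and P12-Ichikawa cells (1000 cells/well) went into 1536-well plates at 5 μl, then received library compounds in DMSO by pin dosing across 11 threefold concentrations, 47 μM to 0.79 nM. Readout was CellTiter-Glo One luminescence after 48 h at 37°C, and viability is given as a per-plate percentage of DMSO wells, with cell-free wells as background.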

P12-Ichikawa [2] = experiment: as above
In short: as §1

SEM cells [3] = experiment: as above
In short: as §1

NOMO1 [4] = experiment: AUC of viability dose-response curve (% viability x log10 dose units); higher = less sensitive
In short: (§2)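 Leukemia cells adapted to each medium were seeded in 1536-well plates (500 or 1000 cells/well) and given library compounds in DMSO for 48 h at 37°C. The 11 threefold doses spanned 47 μM to 0.79 nM, and CellTiter-Glo One luminescence was normalised per plate to DMSO and cell-free wells before four-parameter log-logistic fitting on log10 dose. Area under the curve was integrated with the trapezoidal rule, scaling curves above full viability and removing curves that failed quality control.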

P12-Ichikawa [5] = experiment: as above
In short: as §2

SEM cells [6] = experiment: as above
In short: as §2

O=C(Nc1cccnc1)N1CCC(Cc2cccc(Oc3ccc(C(F)(F)F)cn3)c2)CC1
cell viability [%]
Details	NOMO1 [1]	P12-Ichikawa [2]	SEM cells [3]
HPLM + 10% dialyzed FBS, 0.000781 µM	98.9	116	42
HPLM + 10% dialyzed FBS, 0.00234 µM	112	107	94.2
HPLM + 10% dialyzed FBS, 0.00702 µM	108	109	83.5
HPLM + 10% dialyzed FBS, 0.0211 µM	116	104	95.1
HPLM + 10% dialyzed FBS, 0.0632 µM	115	110	117
HPLM + 10% dialyzed FBS, 0.19 µM	115	92	88.7
HPLM + 10% dialyzed FBS, 0.569 µM	116	83.1	94.3
HPLM + 10% dialyzed FBS, 1.71 µM	91.4	76.3	69.6
HPLM + 10% dialyzed FBS, 5.12 µM	81.3	68.7	49.3
HPLM + 10% dialyzed FBS, 15.4 µM	32.6	27.1	11.2
HPLM + 10% dialyzed FBS, 46.1 µM	19	15.5	9
RPMI 5 mM glucose + 10% FBS, 0.000781 µM	111	109	46.8
RPMI 5 mM glucose + 10% FBS, 0.00234 µM	104	117	92.7
RPMI 5 mM glucose + 10% FBS, 0.00702 µM	99.7	117	81.5
RPMI 5 mM glucose + 10% FBS, 0.0211 µM	98.6	106	89.8
RPMI 5 mM glucose + 10% FBS, 0.0632 µM	110	118	100
RPMI 5 mM glucose + 10% FBS, 0.19 µM	107	97.6	88.4
RPMI 5 mM glucose + 10% FBS, 0.569 µM	108	82.2	64.9
RPMI 5 mM glucose + 10% FBS, 1.71 µM	101	64.2	57.1
RPMI 5 mM glucose + 10% FBS, 5.12 µM	108	55.6	35.8
RPMI 5 mM glucose + 10% FBS, 15.4 µM	35.1	23.5	6.35
RPMI 5 mM glucose + 10% FBS, 46.1 µM	23	10.4	4.68
RPMI 5 mM glucose + 10% dialyzed FBS, 0.000781 µM	98.2	108	37.7
RPMI 5 mM glucose + 10% dialyzed FBS, 0.00234 µM	103	108	91.2
RPMI 5 mM glucose + 10% dialyzed FBS, 0.00702 µM	92.1	113	81.1
RPMI 5 mM glucose + 10% dialyzed FBS, 0.0211 µM	102	114	78.1
RPMI 5 mM glucose + 10% dialyzed FBS, 0.0632 µM	102	103	98.4
RPMI 5 mM glucose + 10% dialyzed FBS, 0.19 µM	118	88.4	91.1
RPMI 5 mM glucose + 10% dialyzed FBS, 0.569 µM	116	81.1	86.9
RPMI 5 mM glucose + 10% dialyzed FBS, 1.71 µM	107	62.6	58.1
RPMI 5 mM glucose + 10% dialyzed FBS, 5.12 µM	85.8	50.4	34.7
RPMI 5 mM glucose + 10% dialyzed FBS, 15.4 µM	47	29.3	14.4
RPMI 5 mM glucose + 10% dialyzed FBS, 46.1 µM	31.5	13.9	8.02

AUC of viability dose-response curve
Details	NOMO1 [4]	P12-Ichikawa [5]	SEM cells [6]
HPLM + 10% dialyzed FBS	405	361	337
RPMI 5 mM glucose + 10% FBS	427	346	299
RPMI 5 mM glucose + 10% dialyzed FBS	425	344	303

CCN(CC)CCCC(C)Nc1ccnc2cc(Cl)ccc12 (centres undefined)
cell viability [%]
Details	NOMO1 [1]	P12-Ichikawa [2]	SEM cells [3]
HPLM + 10% dialyzed FBS, 0.000781 µM	112	105	108
HPLM + 10% dialyzed FBS, 0.00234 µM	100	110	113
HPLM + 10% dialyzed FBS, 0.00702 µM	124	112	116
HPLM + 10% dialyzed FBS, 0.0211 µM	115	117	121
HPLM + 10% dialyzed FBS, 0.0632 µM	120	119	122
HPLM + 10% dialyzed FBS, 0.19 µM	103	121	128
HPLM + 10% dialyzed FBS, 0.569 µM	104	113	116
HPLM + 10% dialyzed FBS, 1.71 µM	69.7	109	117
HPLM + 10% dialyzed FBS, 5.12 µM	74	101	134
HPLM + 10% dialyzed FBS, 15.4 µM	31.6	27.5	127
HPLM + 10% dialyzed FBS, 46.1 µM	31.5	21	102
RPMI 5 mM glucose + 10% FBS, 0.000781 µM	103	105	102
RPMI 5 mM glucose + 10% FBS, 0.00234 µM	112	114	117
RPMI 5 mM glucose + 10% FBS, 0.00702 µM	99.2	108	119
RPMI 5 mM glucose + 10% FBS, 0.0211 µM	102	102	104
RPMI 5 mM glucose + 10% FBS, 0.0632 µM	117	111	109
RPMI 5 mM glucose + 10% FBS, 0.19 µM	108	112	111
RPMI 5 mM glucose + 10% FBS, 0.569 µM	110	107	100
RPMI 5 mM glucose + 10% FBS, 1.71 µM	92.8	103	129
RPMI 5 mM glucose + 10% FBS, 5.12 µM	99.7	101	118
RPMI 5 mM glucose + 10% FBS, 15.4 µM	21.1	21.4	106
RPMI 5 mM glucose + 10% FBS, 46.1 µM	18	20.7	94.4
RPMI 5 mM glucose + 10% dialyzed FBS, 0.000781 µM	124	107	105
RPMI 5 mM glucose + 10% dialyzed FBS, 0.00234 µM	120	109	98.6
RPMI 5 mM glucose + 10% dialyzed FBS, 0.00702 µM	118	106	103
RPMI 5 mM glucose + 10% dialyzed FBS, 0.0211 µM	134	109	103
RPMI 5 mM glucose + 10% dialyzed FBS, 0.0632 µM	120	106	99.9
RPMI 5 mM glucose + 10% dialyzed FBS, 0.19 µM	121	101	115
RPMI 5 mM glucose + 10% dialyzed FBS, 0.569 µM	120	117	109
RPMI 5 mM glucose + 10% dialyzed FBS, 1.71 µM	111	110	129
RPMI 5 mM glucose + 10% dialyzed FBS, 5.12 µM	107	98.2	104
RPMI 5 mM glucose + 10% dialyzed FBS, 15.4 µM	26.9	27.7	87
RPMI 5 mM glucose + 10% dialyzed FBS, 46.1 µM	26.5	22	92.4

AUC of viability dose-response curve
Details	NOMO1 [4]	P12-Ichikawa [5]	SEM cells [6]
HPLM + 10% dialyzed FBS	382	416	477
RPMI 5 mM glucose + 10% FBS	416	416	468
RPMI 5 mM glucose + 10% dialyzed FBS	416	418	468

C[C@@H](Cc1cc2c(c(C(N)=O)c1)N(CCCO)CC2)NCCOc1ccccc1OCC(F)(F)F
cell viability [%]
Details	NOMO1 [1]	P12-Ichikawa [2]	SEM cells [3]
HPLM + 10% dialyzed FBS, 0.000781 µM	94.5	91.9	86.8
HPLM + 10% dialyzed FBS, 0.00234 µM	99.7	115	85.3
HPLM + 10% dialyzed FBS, 0.00702 µM	101	101	76.7
HPLM + 10% dialyzed FBS, 0.0211 µM	120	116	82.9
HPLM + 10% dialyzed FBS, 0.0632 µM	107	113	99
HPLM + 10% dialyzed FBS, 0.19 µM	123	112	96.7
HPLM + 10% dialyzed FBS, 0.569 µM	122	119	95.5
HPLM + 10% dialyzed FBS, 1.71 µM	135	114	97.3
HPLM + 10% dialyzed FBS, 5.12 µM	111	112	101
HPLM + 10% dialyzed FBS, 15.4 µM	114	118	98.1
HPLM + 10% dialyzed FBS, 46.1 µM	113	110	88.7
RPMI 5 mM glucose + 10% FBS, 0.000781 µM	94.5	99.4	95.1
RPMI 5 mM glucose + 10% FBS, 0.00234 µM	105	111	111
RPMI 5 mM glucose + 10% FBS, 0.00702 µM	107	106	114
RPMI 5 mM glucose + 10% FBS, 0.0211 µM	106	130	112
RPMI 5 mM glucose + 10% FBS, 0.0632 µM	112	116	119
RPMI 5 mM glucose + 10% FBS, 0.19 µM	109	123	107
RPMI 5 mM glucose + 10% FBS, 0.569 µM	110	115	121
RPMI 5 mM glucose + 10% FBS, 1.71 µM	105	101	101
RPMI 5 mM glucose + 10% FBS, 5.12 µM	116	112	102
RPMI 5 mM glucose + 10% FBS, 15.4 µM	110	117	110
RPMI 5 mM glucose + 10% FBS, 46.1 µM	106	102	99.2
RPMI 5 mM glucose + 10% dialyzed FBS, 0.000781 µM	89.4	90.4	93.4
RPMI 5 mM glucose + 10% dialyzed FBS, 0.00234 µM	106	104	98.3
RPMI 5 mM glucose + 10% dialyzed FBS, 0.00702 µM	106	103	101
RPMI 5 mM glucose + 10% dialyzed FBS, 0.0211 µM	104	105	110
RPMI 5 mM glucose + 10% dialyzed FBS, 0.0632 µM	126	111	123
RPMI 5 mM glucose + 10% dialyzed FBS, 0.19 µM	115	109	118
RPMI 5 mM glucose + 10% dialyzed FBS, 0.569 µM	109	109	111
RPMI 5 mM glucose + 10% dialyzed FBS, 1.71 µM	121	110	142
RPMI 5 mM glucose + 10% dialyzed FBS, 5.12 µM	116	99.4	110
RPMI 5 mM glucose + 10% dialyzed FBS, 15.4 µM	105	109	110
RPMI 5 mM glucose + 10% dialyzed FBS, 46.1 µM	104	97.5	82.9

AUC of viability dose-response curve
Details	NOMO1 [4]	P12-Ichikawa [5]	SEM cells [6]
HPLM + 10% dialyzed FBS	457	472	438
RPMI 5 mM glucose + 10% FBS	458	472	465
RPMI 5 mM glucose + 10% dialyzed FBS	466	472	463
